Reference: patent USRE37781E1, “Substituted cyclic carbonyls and derivatives thereof useful as retroviral protease inhibitors” (DuPont Pharmaceuticals Company, priority 1991, dated 2002)
Read-outs that look alike come from different tables or passages of the source.

Assays:
HIV-1 (RF) in MT-2 cells = test: microbe, parasite or virus in culture; type: cell-based; settings: read-out: IC90
Procedure, shortened: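 Read-out: gag and pol viral RNA captured by 5′-biotinylated oligonucleotides on streptavidin-coated wells, detected with alkaline phosphatase-linked reporter oligonucleotides, calibrated against BH10 in vitro transcripts. Virus stocks (RF, MN, IIIB) come from H9 cultures; MT-2 host cells kept in RPMI 1640, 5% FCS.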

[1] = target: single-chain tethered dimer of HIV protease (Human immunodeficiency virus 1, UniProt P04585); test: biochemical; type: biochemical; design: fused on or other part: A second copy of the same protease unit is joined to the first by a short peptide tether, giving one polypeptide
[2] = Human immunodeficiency virus 1, MT2, 48 h, Table 2d, class symbols
[3] = read-out: HPLC K1, Table 2d, class symbols
[4] = Human immunodeficiency virus 1, MT2, 48 h, Table 2d, HIV RNA assay
[5] = read-out: HPLC K1, Table 2d, HIV protease inhibition, HPLC method

Compound | IC90 (HIV-1 (RF) in MT-2 cells; [2]) [µg/mL] | melting point | Ki [1, 3] [nM] | other results
CNC(=O)c1cccc(CN2C(=O)N(Cc3cccc(C(=O)OC)c3)C(Cc3ccccc3)C(O)C(O)C2Cc2ccccc2)c1 (stereo not drawn) [11G] | < 10 | 158 to 161 °C | < 10 | 
O=C1N(Cc2ccc(O)c(O)c2)C(Cc2ccccc2)C(O)C(O)C(Cc2ccccc2)N1CC1CC1 (stereo not drawn) [15AG] |  | 141 °C |  | IC90 (HIV-1 (RF) in MT-2 cells; [4]): < 10 µg/mL; Ki [1, 5]: < 10 nM
CNc1cccc(CN2C(=O)N(Cc3cccc(NC)c3)C(Cc3ccccc3)C(O)C(O)C2Cc2ccccc2)c1 (stereo not drawn) [15D] | < 10 | 180.3 °C | < 10 | 
NC(=NO)c1cccc(CN2C(=O)N(Cc3ccc(CO)cc3)C(Cc3ccccc3)C(O)C(O)C2Cc2ccccc2)c1 (stereo not drawn) [15AH] |  | 198 to 199 °C |  | IC90 (HIV-1 (RF) in MT-2 cells; [4]): < 10 µg/mL; Ki [1, 5]: < 10 nM
O=C1N(Cc2ccc3[nH]ncc3c2)C(Cc2ccccc2)C(O)C(O)C(Cc2ccccc2)N1Cc1ccc2[nH]ncc2c1 (stereo not drawn) [15CX] |  | 165 to 170 °C |  | IC90 (HIV-1 (RF) in MT-2 cells; [4]): < 10 µg/mL; Ki [1, 5]: < 10 nM
O=C1N(Cc2ccc(CO)cc2)C(Cc2ccccc2)C(O)C(O)C(Cc2ccccc2)N1Cc1cccc(O)c1 (stereo not drawn) [10o] | < 10 | 141 to 144 °C | < 10 | 
O=C1N(Cc2ccoc2)C(Cc2ccccc2)C(O)C(O)C(Cc2ccccc2)N1Cc1ccoc1 (stereo not drawn) [Example 15FN] |  | 152.5 to 153 °C |  | IC90 (HIV-1 (RF) in MT-2 cells; Human immunodeficiency virus 1, MT2, 48 h, HIV RNA assay, HIV-1 infected MT-2 cells, Table 2d): < 10 µg/mL; Ki ([1]; read-out: HPLC K1, HIV protease inhibition, HPLC method, Table 2d): < 10 nM
O=C1NC(Cc2ccccc2)C(O)C(O)C(Cc2ccccc2)N1Cc1cccc(CO)c1 (stereo not drawn) [15WI] | < 10 | 176 to 177 °C | < 10 | 
CC(=O)c1cccc(CN2C(=O)N(Cc3cccc(C(C)=O)c3)C(Cc3ccccc3)C(O)C(O)C2Cc2ccccc2)c1 (stereo not drawn) [Example 9P] | < 10 | 158 to 159 °C | 10 to 1000 | 
O=C1N(Cc2cccc(-c3nnn[nH]3)c2)C(Cc2ccccc2)C(O)C(O)C(Cc2ccccc2)N1Cc1cccc(-c2nnn[nH]2)c1 (stereo not drawn) [9T] | > 100 | 159.4 °C | < 10 | 
CCOC(=O)c1ccc(CN2C(=O)N(Cc3ccc(C(=O)OCC)cc3)C(Cc3ccccc3)C(O)C(O)C2Cc2ccccc2)cc1 (stereo not drawn) [Example 11F] | > 100 | 174 to 178 °C | 10 to 1000 | 
O=C1N(Cc2ccc(CO)cc2)C(Cc2ccccc2)C(O)C(O)C(Cc2ccccc2)N1Cc1cccc([N+](=O)[O-])c1 (stereo not drawn) [15J] | < 10 | 92 °C | < 10 | 
O=C1N(Cc2cccc(OCCN3CCOCC3)c2)C(Cc2ccccc2)C(O)C(O)C(Cc2ccccc2)N1Cc1cccc(OCCN2CCOCC2)c1 (stereo not drawn) [Example 15YG] |  | 110 to 112 °C |  | IC90 (HIV-1 (RF) in MT-2 cells; [4]): < 10 µg/mL; Ki [1, 5]: 10 to 1000 nM
NNC(=O)c1cccc(CN2C(=O)N(Cc3cccc(C(=O)NN)c3)C(Cc3ccccc3)C(O)C(O)C2Cc2ccccc2)c1 (stereo not drawn) [Example 10M] | < 10 | 205 °C | < 10 | 
NC(=NO)c1cccc(CN2C(=O)NC(Cc3ccccc3)C(O)C(O)C2Cc2ccccc2)c1 (stereo not drawn) [15AT] |  | 172 to 179 °C |  | IC90 (HIV-1 (RF) in MT-2 cells; [4]): < 10 µg/mL; Ki [1, 5]: < 10 nM
NC(=NO)c1cccc(CN2C(=O)N(CC3CC3)C(Cc3ccccc3)C(O)C(O)C2Cc2ccccc2)c1 (stereo not drawn) [15AF] |  | 183 to 186 °C |  | IC90 (HIV-1 (RF) in MT-2 cells; [4]): < 10 µg/mL; Ki [1, 5]: < 10 nM
O=S1(=O)N(Cc2ccc(CO)cc2)C(Cc2ccccc2)C(O)C(O)C(Cc2ccccc2)N1Cc1ccc(CO)cc1 (stereo not drawn) [23B] |  | 189 to 190 °C |  | IC90 (HIV-1 (RF) in MT-2 cells; Human immunodeficiency virus 1, MT2, Table 2m): < 10 µg/mL; Ki ([1]; read-out: HPLC Ki, Table 2m): < 10 nM
O=C1N(Cc2cccc(O)c2)C(Cc2ccccc2)C(O)C(O)C(Cc2ccccc2)N1Cc1ccc2ccccc2c1 (stereo not drawn) [10K] | < 10 | 137 to 138 °C | < 10 | 

Compound | IC90 (HIV-1 (RF) in MT-2 cells; [2]) [µg/mL] | melting point | Ki [1, 3] [nM] | other results
O=C1N(Cc2ccc3[nH]ccc3c2)C(Cc2ccccc2)C(O)C(O)C(Cc2ccccc2)N1Cc1ccc2[nH]ccc2c1 (stereo not drawn) [15DE] |  | 170 °C (dec.) |  | IC90 (HIV-1 (RF) in MT-2 cells; [4]): < 10 µg/mL; Ki [1, 5]: < 10 nM
CCC(O)CN1C(=O)N(CC(O)CC)C(Cc2ccccc2)C(O)C(O)C1Cc1ccccc1 (stereo not drawn) [15VN] | > 50 | 99.2 °C | > 1000 | 
O=C1Nc2ccc(CN3C(=O)N(Cc4ccc5c(c4)C(=O)C(=O)N5)C(Cc4ccccc4)C(O)C(O)C3Cc3ccccc3)cc2C1=O (stereo not drawn) [15DA] |  | 196 to 200 °C |  | IC90 (HIV-1 (RF) in MT-2 cells; [4]): < 10 µg/mL; Ki [1, 5]: < 10 nM
O=C(O)c1cccc(CN2C(=O)N(CC3CC3)C(Cc3ccccc3)C(O)C(O)C2Cc2ccccc2)c1 (stereo not drawn) [15WQ] | < 10 | 135 to 137 °C | < 10 | 
O=C1N(CCCCCO)C(Cc2ccccc2)C(O)C(O)C(Cc2ccccc2)N1Cc1ccc2ccccc2c1 (stereo not drawn) [Example 15VH] | < 10 | 84.6 °C | < 10 | 
CNC(=O)c1cccc(CN2C(=O)N(Cc3cccc(CO)c3)C(Cc3ccccc3)C(O)C(O)C2Cc2ccccc2)c1 (stereo not drawn) [11M] | < 10 | 107 to 109 °C | < 10 | 
CC(=O)c1cccc(CN2C(=O)N(Cc3cccc(Br)c3)C(Cc3ccccc3)C(O)C(O)C2Cc2ccccc2)c1 (stereo not drawn) [Example 9o] | < 10 | 190 to 191 °C | 10 to 1000 | 
OC1C(O)C(Cc2ccccc2)N(CC2CC2)C(=S)N(CC2CC2)C1Cc1ccccc1 (stereo not drawn) [Example 27B] |  | 84 to 86 °C |  | IC90 (HIV-1 (RF) in MT-2 cells; Human immunodeficiency virus 1, MT2, Table 2q): < 10 µg/mL; Ki ([1]; read-out: HPLC Ki, Table 2q): < 10 nM
CNc1cccc(CN2C(=O)N(Cc3ccc4ccccc4c3)C(Cc3ccccc3)C(O)C(O)C2Cc2ccccc2)c1 (stereo not drawn) [15WZ] | < 10 | 98 to 100 °C | < 10 | 
O=C1N(Cc2cccc(-c3ncc[nH]3)c2)C(Cc2ccccc2)C(O)C(O)C(Cc2ccccc2)N1Cc1cccc(-c2ncc[nH]2)c1 (stereo not drawn) [Example 15BR] |  | 178 to 180 °C |  | IC90 (HIV-1 (RF) in MT-2 cells; [4]): < 10 µg/mL; Ki [1, 5]: < 10 nM
O=C1N(Cc2cccc(-c3cc[nH]n3)c2)C(Cc2ccccc2)C(O)C(O)C(Cc2ccccc2)N1Cc1ccc(O)c(O)c1 (stereo not drawn) [Example 15CC] |  | 177 to 180 °C |  | IC90 (HIV-1 (RF) in MT-2 cells; [4]): < 10 µg/mL; Ki [1, 5]: < 10 nM
CCCNC(=O)c1cccc(CN2C(=O)N(Cc3cccc(C(=O)O)c3)C(Cc3ccccc3)C(O)C(O)C2Cc2ccccc2)c1 (stereo not drawn) [15WO] | < 10 | 151 to 153 °C | < 10 | 
CCN(CC)C(=O)c1cccc(CN2C(=O)N(Cc3cccc(C(=O)N(CC)CC)c3)C(Cc3ccccc3)C(O)C(O)C2Cc2ccccc2)c1 (stereo not drawn) [15WF] | < 10 | 89 to 91 °C | < 10 | 
CON=Cc1cccc(CN2C(=O)N(Cc3cccc(C=NOC)c3)C(Cc3ccccc3)C(O)C(O)C2Cc2ccccc2)c1 (stereo not drawn) [10D] | > 100 | 183 to 185 °C | 10 to 1000 | 
NC(=O)c1cccc(CN2C(=O)N(CC3CC3)C(Cc3ccccc3)C(O)C(O)C2Cc2ccccc2)c1 (stereo not drawn) [15WV] | < 10 | 128 to 130 °C | < 10 | 
NC(=O)c1cccc(CN2C(=O)N(Cc3ccc(CO)cc3)C(Cc3ccccc3)C(O)C(O)C2Cc2ccccc2)c1 (stereo not drawn) [15WT] | < 10 | 123 to 124 °C | < 10 | 
CN(C)c1cccc(CN2C(=O)N(Cc3cccc(N(C)C)c3)C(Cc3ccccc3)C(O)C(O)C2Cc2ccccc2)c1 (stereo not drawn) [15I] | < 10 | 199.9 °C | < 10 | 
O=C1N(Cc2cccc(-c3nnn[nH]3)c2)C(Cc2ccccc2)C(O)C(O)C(Cc2ccccc2)N1CC1CC1 (stereo not drawn) [9U] | < 10 | 171.6 °C | < 10 | 
